How the values were obtained:
[1] = tested on: CCRF-CEM (CEM, T-lymfoblastic leukemia); assay: MTT in vitro cytotoxic test, CCRF-CEM; assay type: cell-based; settings: Homo sapiens, CCRF-CEM cells
From the text: (§1) MTT test was used for in vitro evaluation of antitumor activities of newly synthesized compounds on cell lines derived from normal tissues or tumors. Specifically, cell lines K562 (human […]), K562-Tax (human […] myeloid leukemia, paclitaxel resistant subline, overexpress multiple drug resistant protein PgP), CEM (T-lymfoblastic leukemia), CEM-DNR-bulk (T-lymfoblastic leukemia, doxorubicin resistant), A549 (human lung adenocarcinoma), HCT116 wt (human colorectal cancer, wild-type), HCT116p53−/−(human colorectal cancer, mutant p53) a U2OS (human bone osteosarcoma) were used.
(§2) Express characteristics, susceptibility profiles of classic antitumor drugs as well as methodology of cytotoxic MTT test have been repeatedly published {ref.:Noskova, V.; Dzubak, P.; Kuzmina, G.; Ludkova, A.; Stehlik, D.; Trojanec, R.; Janostakova, A.; Korinkova, G.; Mihal, V.; Hajduch, M., Neoplasma 2002, 49, 418-425}.

[2] = tested on: HCT116 wt (human colorectal cancer, wild-type); assay: MTT in vitro cytotoxic test, HCT116; assay type: cell-based; settings: HCT-116, HCT116 cells (p53 wild type)
From the text: as §1, §2

[3] = tested on: K562-Tax (human acute myeloid leukemia, paclitaxel resistant subline); assay: MTT in vitro cytotoxic test, K562-TAX; assay type: cell-based; settings: K562-TAX cells (paclitaxel resistant)
From the text: as §1, §2

[4] = tested on: K562 (human acute myeloid leukemia); assay: MTT in vitro cytotoxic test, K562; assay type: cell-based; settings: K562 cells
From the text: as §1, §2

[5] = tested on: CEM-DNR-bulk (T-lymfoblastic leukemia, doxorubicin resistant); assay: MTT in vitro cytotoxic test, CEM-DNR; assay type: cell-based; settings: Homo sapiens, CEM-DNR cells (doxorubicin resistant)
From the text: as §1, §2

[6] = tested on: HCT116p53−/− (human colorectal cancer, mutant p53); assay: MTT in vitro cytotoxic test, HCT116p53; assay type: cell-based; settings: HCT116p53−/− cells
From the text: as §1, §2

[7] = tested on: A549 (human lung adenocarcinoma); assay: MTT in vitro cytotoxic test, A549; assay type: cell-based; settings: A549 cells
From the text: as §1, §2

[8] = tested on: U2OS (human bone osteosarcoma); assay: MTT in vitro cytotoxic test, U2OS; assay type: cell-based; settings: U2OS cells
From the text: as §1, §2

[9] = tested on: cancer cell lines of various histogenetic origin; assay: In vitro cytotoxic test, summary over cancer cell lines; assay type: cell-based, human; settings: text summary of Table 4
From the text: as §1, §2

melting point | SMILES | IC50 [1] | IC50 [2] | IC50 [3] | IC50 [4] | IC50 [5] | IC50 [6] | IC50 [7] | IC50 [8] | IC50 values (range in words) [9]
117 °C | CN(C)c1ncnc2c1c1ccsc1n2[C@@H]1O[C@H](CO)[C@@H](O)[C@H]1O [Compound 1e, 4-(N,N-dimethylamino)-8-(β-D-ribofuranosyl)-8H-thieno[3′,2′:4,5]pyrrolo[2,3-d]pyrimidine] | 25 to 50 µM | 25 to 50 µM | 25 to 50 µM | 25 to 50 µM | 25 to 50 µM | 25 to 50 µM | 25 to 50 µM | 25 to 50 µM | –
98 °C | Nc1ncnc2c1c1ccsc1n2[C@@H]1O[C@H](CO)[C@@H](O)[C@H]1O [Compound 1f, 4-Amino-8-(β-D-ribofuranosyl)-8H-thieno[3′,2′:4,5]pyrrolo[2,3-d]pyrimidine] | 0.2 to 0.9 µM | 25 to 50 µM | 0.2 to 0.9 µM | 25 to 50 µM | 25 to 50 µM | 0.9 to 10 µM | 25 to 50 µM | 0.2 to 0.9 µM | micromolar range
159 to 160 °C | COc1ncnc2c1c1ccsc1n2[C@@H]1O[C@H](CO)[C@@H](O)[C@H]1O [Compound 1g, 4-Methoxy-8-(β-D-ribofuranosyl)-8H-thieno[3′,2′:4,5]pyrrolo[2,3-d]pyrimidine] | 0.01 to 0.2 µM | 0.2 to 0.9 µM | 10 to 25 µM | 0.2 to 0.9 µM | 25 to 50 µM | 0.2 to 0.9 µM | 0.9 to 10 µM | 0.01 to 0.2 µM | sub-micromolar to nanomolar
148 to 152 °C | CSc1ncnc2c1c1ccsc1n2[C@@H]1O[C@H](CO)[C@@H](O)[C@H]1O [Compound 1h, 4-(Methylsulfanyl)-8-(β-D-ribofuranosyl)-8H-thieno[3′,2′:4,5]pyrrolo[2,3-d]pyrimidine] | 0.01 to 0.2 µM | 0.01 to 0.2 µM | 10 to 25 µM | 0.2 to 0.9 µM | 25 to 50 µM | 0.2 to 0.9 µM | 0.2 to 0.9 µM | 0.01 to 0.2 µM | sub-micromolar to nanomolar

The remaining lines, values behind:

SMILES | melting point | IC50 [1] | IC50 [2] | IC50 [3] | IC50 [4] | IC50 [5] | IC50 [6] | IC50 [7] | IC50 [8] | IC50 values (range in words) [9]
OC[C@H]1O[C@@H](n2c3ncnc(-c4ccco4)c3c3ccsc32)[C@H](O)[C@@H]1O [Compound 1a, 4-(Furan-2-yl)-8-(β-D-ribofuranosyl)-8H-thieno[3′,2′:4,5]pyrrolo[2,3-d]pyrimidine] | – | 25 to 50 µM | 25 to 50 µM | 25 to 50 µM | 25 to 50 µM | 25 to 50 µM | 25 to 50 µM | 25 to 50 µM | 25 to 50 µM | –
OC[C@H]1O[C@@H](n2c3ncnc(-c4ccoc4)c3c3ccsc32)[C@H](O)[C@@H]1O [Compound 1b, 4-(Furan-3-yl)-8-(β-D-ribofuranosyl)-8H-thieno[3′,2′:4,5]pyrrolo[2,3-d]pyrimidine] | – | 25 to 50 µM | 25 to 50 µM | 25 to 50 µM | 25 to 50 µM | 25 to 50 µM | 25 to 50 µM | 25 to 50 µM | 25 to 50 µM | –
OC[C@H]1O[C@@H](n2c3ncnc(-c4cc5ccccc5o4)c3c3ccsc32)[C@H](O)[C@@H]1O [Compound 1c, 4-(Benzofuran-2-yl)-8-(β-D-ribofuranosyl)-8H-thieno[3′,2′:4,5]pyrrolo[2,3-d]pyrimidine] | – | 10 to 25 µM | 25 to 50 µM | 10 to 25 µM | 25 to 50 µM | 10 to 25 µM | 25 to 50 µM | 25 to 50 µM | 25 to 50 µM | micromolar range
Cc1ncnc2c1c1ccsc1n2[C@@H]1O[C@H](CO)[C@@H](O)[C@H]1O [Compound 1d, 4-Methyl-8-(β-D-ribofuranosyl)-8H-thieno[3′,2′:4,5]pyrrolo[2,3-d]pyrimidine] | 126 to 128 °C | 0.01 to 0.2 µM | 0.2 to 0.9 µM | 0.9 to 10 µM | 0.01 to 0.2 µM | 25 to 50 µM | 0.2 to 0.9 µM | 0.2 to 0.9 µM | 0.01 to 0.2 µM | sub-micromolar to nanomolar
